Patent US20120034613A1, “Apparatus and Method for Testing Relationships Between Gene Expression and Physical Appearance of Skin” (NSE Products, Inc., priority 2010, published 2012)

Test system: EpidermFT™ Skin Model (EFT-400) full thickness skin cultures
Test: Affymetrix GeneChip HG U133 Plus 2.0 microarray global gene expression, agent-exposed vs untreated skin cultures
Format: cell-based, human
Conditions: Salicin 0.5% vs Untreated Control

SMILES: OCc1ccccc1O[C@@H]1O[C@H](CO)[C@@H](O)[C@H](O)[C@H]1O [Salicin, 2-(Hydroxymethyl)phenyl β-D-glucospyranoside]
- Fold change TMEM38B (222736_s_at) (24 hr treatment): 2.316
- Fold change TMEM39A (218615_s_at) (24 hr treatment): 2.497
- Fold change TMEM39A (222690_s_at) (24 hr treatment): 2.47
- Fold change TMTC1 (226322_at) (24 hr treatment): 2.647
- Fold change TMTC1 (226931_at) (24 hr treatment): 2.583
- Fold change TNC (216005_at) (24 hr treatment): 2.719
- Fold change TNFAIP6 (206026_s_at) (24 hr treatment): 2.52
- Fold change TNIP3 (220655_at) (24 hr treatment): 2.654
- Fold change TRPA1 (217590_s_at) (24 hr treatment): 2.602
- Fold change TRPC4 (224220_x_at) (24 hr treatment): 2.708
- Fold change UBE2B (239163_at) (24 hr treatment): 2.636
- Fold change UGCGL2 (218801_at) (24 hr treatment): 2.4
- Fold change UST (205139_s_at) (24 hr treatment): 2.454
- Fold change WIPI1 (203827_at) (24 hr treatment): 2.744
- Fold change XPO1 (235927_at) (24 hr treatment): 2.529
- Fold change ZFAND5 (217649_at) (24 hr treatment): 2.438
- Fold change ZFP36L1 (211965_at) (24 hr treatment): 2.705
- Fold change ZNF281 (228785_at) (24 hr treatment): 2.627
- Fold change ZNF331 (219228_at) (24 hr treatment): 2.442
- Fold change ZNF697 (227080_at) (24 hr treatment): 2.599
- Fold change ABCD3 (202850_at) (24 hr, direction down): 2.077
- Fold change ABCG4 (207593_at) (24 hr, direction down): 2.004
- Fold change ACACA (212186_at) (24 hr, direction down): 2.091
- Fold change ACAD9 (224160_s_at) (24 hr, direction down): 2.034
- Fold change ACOX3 (204241_at) (24 hr, direction down): 2.001
- Fold change ADAMTSL4 (226071_at) (24 hr, direction down): 2.137
- Fold change ADARB1 (203865_s_at) (24 hr, direction down): 2.089
- Fold change AHNAK (211986_at) (24 hr, direction down): 2.023
- Fold change AIF1L (223075_s_at) (24 hr, direction down): 2.169
- Fold change AK1 (202587_s_at) (24 hr, direction down): 2.078
- Fold change AK3L1 /// AK3L2 (204347_at) (24 hr, direction down): 2.026
- Fold change ALDH5A1 (203609_s_at) (24 hr, direction down): 2.111
- Fold change ALOX12 (207206_s_at) (24 hr, direction down): 2.124
- Fold change AMACR (209426_s_at) (24 hr, direction down): 2.021
- Fold change AMOTL2 (203002_at) (24 hr, direction down): 2.089
- Fold change ANK3 (207950_s_at) (24 hr, direction down): 2.049
- Fold change APPL2 (218218_at) (24 hr, direction down): 2.013
- Fold change AQP3 (203747_at) (24 hr, direction down): 2.032
- Fold change ARHGAP27 (225618_at) (24 hr, direction down): 2.077
- Fold change ARL17 /// ARL17P1 (1555964_at) (24 hr, direction down): 2.016
- Fold change ARPC1A (200950_at) (24 hr, direction down): 2.042
- Fold change ASAP3 (222236_s_at) (24 hr, direction down): 2.079
- Fold change ATP2B4 (212136_at) (24 hr, direction down): 2.118
- Fold change ATXN3 (205416_s_at) (24 hr, direction down): 2.164
- Fold change BAIAP2 (205293_x_at) (24 hr, direction down): 2.03
- Fold change BCL11A (1559078_at) (24 hr, direction down): 2.151
- Fold change BCL11B (222895_s_at) (24 hr, direction down): 2.021
- Fold change BICD2 (1553021_s_at) (24 hr, direction down): 2.09
- Fold change BLCAP (201032_at) (24 hr, direction down): 2.077
- Fold change C1orf46 (216718_at) (24 hr, direction down): 2.083
- Fold change C1orf71 (225551_at) (24 hr, direction down): 2.006
- Fold change C1orf97 (224443_at) (24 hr, direction down): 2.02
- Fold change C2orf7 (223312_at) (24 hr, direction down): 2.047
- Fold change C4orf3 (224605_at) (24 hr, direction down): 2.002
- Fold change C6orf105 (215100_at) (24 hr, direction down): 2.121
- Fold change C12orf29 (228378_at) (24 hr, direction down): 2.164
- Fold change C15orf52 (227272_at) (24 hr, direction down): 2.042
- Fold change C17orf67 (236863_at) (24 hr, direction down): 2.03
- Fold change C20orf177 (225313_at) (24 hr, direction down): 2.134
- Fold change CALM1 /// CALM2 /// CALM3 (200653_s_at) (24 hr, direction down): 2.056
- Fold change CALM1 /// CALM2 /// CALM3 (209563_x_at) (24 hr, direction down): 2.029
- Fold change CAT (211922_s_at) (24 hr, direction down): 2.095
- Fold change CENPT (218148_at) (24 hr, direction down): 2.074
- Fold change CEP76 (52285_f_at) (24 hr, direction down): 2.004
- Fold change CERK (218421_at) (24 hr, direction down): 2.138
- Fold change CKB (200884_at) (24 hr, direction down): 2.055
- Fold change CLCN5 (232127_at) (24 hr, direction down): 2.126
- Fold change CLDN7 (202790_at) (24 hr, direction down): 2.043
- Fold change CLIP1 (1558924_s_at) (24 hr, direction down): 2.123
- Fold change CLN8 (229958_at) (24 hr, direction down): 2.102
- Fold change CNDP2 (217752_s_at) (24 hr, direction down): 2.002
- Fold change CNTN1 (211203_s_at) (24 hr, direction down): 2.105
- Fold change CSNK2A2 (203575_at) (24 hr, direction down): 2.095
- Fold change CTAGE4 (215549_x_at) (24 hr, direction down): 2.108
- Fold change CXCL12 (203666_at) (24 hr, direction down): 2.074
- Fold change CYB5R1 (202263_at) (24 hr, direction down): 2.119
- Fold change CYCS (244546_at) (24 hr, direction down): 2.168
- Fold change DBI (211070_x_at) (24 hr, direction down): 2.056
- Fold change DDR1 (1007_s_at) (24 hr, direction down): 2.104
- Fold change DDX50 (1568815_a_at) (24 hr, direction down): 2.115
- Fold change DHRS4 /// DHRS4L2 (218021_at) (24 hr, direction down): 2.062
- Fold change DMD (203881_s_at) (24 hr, direction down): 2.165
- Fold change DOPEY2 (205248_at) (24 hr, direction down): 2.103
- Fold change ELOVL3 (234513_at) (24 hr, direction down): 2.048
- Fold change EPCAM (201839_s_at) (24 hr, direction down): 2.093
- Fold change EPHB4 (202894_at) (24 hr, direction down): 2.087
- Fold change EPHB6 (204718_at) (24 hr, direction down): 2.036
- Fold change ERI2 (213365_at) (24 hr, direction down): 2.167
- Fold change F2RL1 (206429_at) (24 hr, direction down): 2.099
- Fold change FAM33A (225684_at) (24 hr, direction down): 2.022
- Fold change FAR1 (224865_at) (24 hr, direction down): 2.117
- Fold change FBXO3 (229955_at) (24 hr, direction down): 2.107
- Fold change FBXO3 (238686_at) (24 hr, direction down): 2.147
- Fold change FBXO9 (212991_at) (24 hr, direction down): 2.083
- Fold change FBXO9 (1559094_at) (24 hr, direction down): 2.099
- Fold change FIGNL1 (222843_at) (24 hr, direction down): 2.071
- Fold change FKBP1B (206857_s_at) (24 hr, direction down): 2.113
- Fold change FKBPL (219187_at) (24 hr, direction down): 2.09
- Fold change FRAG1 (41858_at) (24 hr, direction down): 2.049
- Fold change FUCA1 (202838_at) (24 hr, direction down): 2.147
- Fold change FUT2 (210608_s_at) (24 hr, direction down): 2.05
- Fold change GAB1 (225998_at) (24 hr, direction down): 2.071
- Fold change GAS7 (202192_s_at) (24 hr, direction down): 2.035
- Fold change GDAP1 (226269_at) (24 hr, direction down): 2.153
- Fold change GNG4 (205184_at) (24 hr, direction down): 2.054
- Fold change GPR1 (214605_x_at) (24 hr, direction down): 2.109
- Fold change GPR137B (204137_at) (24 hr, direction down): 2.046
- Fold change GSN (200696_s_at) (24 hr, direction down): 2.089
- Fold change HES5 (239230_at) (24 hr, direction down): 2.078
- Fold change HIGD1A (217845_x_at) (24 hr, direction down): 2.017
- Fold change HN1 (222396_at) (24 hr, direction down): 2.105
- Fold change HN1L (212115_at) (24 hr, direction down): 2.003
- Fold change HSDL2 (209512_at) (24 hr, direction down): 2.126
- Fold change ID2 (201565_s_at) (24 hr, direction down): 2.158
